For assay [1], the target named is Maltase-glucoamylase (Homo sapiens) (UniProt O43451). As to the kind of experiment: Inhibition of alpha glucosidase at 100 uM.
Assay [2] deals with T1, Cytosolic beta-glucosidase (Homo sapiens) (UniProt Q9H227).
T1 sequence (whole entry): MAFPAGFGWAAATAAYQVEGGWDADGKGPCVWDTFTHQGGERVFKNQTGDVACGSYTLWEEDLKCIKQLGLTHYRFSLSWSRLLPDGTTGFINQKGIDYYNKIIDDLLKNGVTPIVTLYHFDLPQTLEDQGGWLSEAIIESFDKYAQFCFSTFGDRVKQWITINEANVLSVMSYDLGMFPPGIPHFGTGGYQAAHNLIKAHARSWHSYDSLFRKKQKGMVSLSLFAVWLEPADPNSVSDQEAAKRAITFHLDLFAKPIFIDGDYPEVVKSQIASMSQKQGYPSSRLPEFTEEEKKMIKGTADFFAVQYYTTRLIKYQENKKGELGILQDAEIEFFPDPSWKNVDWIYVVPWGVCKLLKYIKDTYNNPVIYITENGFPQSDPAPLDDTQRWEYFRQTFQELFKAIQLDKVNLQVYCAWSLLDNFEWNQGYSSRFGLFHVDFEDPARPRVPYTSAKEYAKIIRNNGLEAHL
As to the kind of experiment: Inhibition of beta glucosidase at 100 uM.

Activity calls are given as the source filed them. The calls are words filed in the database; no cut-off is given here.

The values that follow come from ChEMBL document CHEMBL1147699, “Studies on the novel alpha-glucosidase inhibitory activity and structure-activity relationships for andrographolide analogues” (Bioorg Med Chem Lett, 2006).

Maltase-glucoamylase (Homo sapiens), sequence (O43451 whole entry, looked up): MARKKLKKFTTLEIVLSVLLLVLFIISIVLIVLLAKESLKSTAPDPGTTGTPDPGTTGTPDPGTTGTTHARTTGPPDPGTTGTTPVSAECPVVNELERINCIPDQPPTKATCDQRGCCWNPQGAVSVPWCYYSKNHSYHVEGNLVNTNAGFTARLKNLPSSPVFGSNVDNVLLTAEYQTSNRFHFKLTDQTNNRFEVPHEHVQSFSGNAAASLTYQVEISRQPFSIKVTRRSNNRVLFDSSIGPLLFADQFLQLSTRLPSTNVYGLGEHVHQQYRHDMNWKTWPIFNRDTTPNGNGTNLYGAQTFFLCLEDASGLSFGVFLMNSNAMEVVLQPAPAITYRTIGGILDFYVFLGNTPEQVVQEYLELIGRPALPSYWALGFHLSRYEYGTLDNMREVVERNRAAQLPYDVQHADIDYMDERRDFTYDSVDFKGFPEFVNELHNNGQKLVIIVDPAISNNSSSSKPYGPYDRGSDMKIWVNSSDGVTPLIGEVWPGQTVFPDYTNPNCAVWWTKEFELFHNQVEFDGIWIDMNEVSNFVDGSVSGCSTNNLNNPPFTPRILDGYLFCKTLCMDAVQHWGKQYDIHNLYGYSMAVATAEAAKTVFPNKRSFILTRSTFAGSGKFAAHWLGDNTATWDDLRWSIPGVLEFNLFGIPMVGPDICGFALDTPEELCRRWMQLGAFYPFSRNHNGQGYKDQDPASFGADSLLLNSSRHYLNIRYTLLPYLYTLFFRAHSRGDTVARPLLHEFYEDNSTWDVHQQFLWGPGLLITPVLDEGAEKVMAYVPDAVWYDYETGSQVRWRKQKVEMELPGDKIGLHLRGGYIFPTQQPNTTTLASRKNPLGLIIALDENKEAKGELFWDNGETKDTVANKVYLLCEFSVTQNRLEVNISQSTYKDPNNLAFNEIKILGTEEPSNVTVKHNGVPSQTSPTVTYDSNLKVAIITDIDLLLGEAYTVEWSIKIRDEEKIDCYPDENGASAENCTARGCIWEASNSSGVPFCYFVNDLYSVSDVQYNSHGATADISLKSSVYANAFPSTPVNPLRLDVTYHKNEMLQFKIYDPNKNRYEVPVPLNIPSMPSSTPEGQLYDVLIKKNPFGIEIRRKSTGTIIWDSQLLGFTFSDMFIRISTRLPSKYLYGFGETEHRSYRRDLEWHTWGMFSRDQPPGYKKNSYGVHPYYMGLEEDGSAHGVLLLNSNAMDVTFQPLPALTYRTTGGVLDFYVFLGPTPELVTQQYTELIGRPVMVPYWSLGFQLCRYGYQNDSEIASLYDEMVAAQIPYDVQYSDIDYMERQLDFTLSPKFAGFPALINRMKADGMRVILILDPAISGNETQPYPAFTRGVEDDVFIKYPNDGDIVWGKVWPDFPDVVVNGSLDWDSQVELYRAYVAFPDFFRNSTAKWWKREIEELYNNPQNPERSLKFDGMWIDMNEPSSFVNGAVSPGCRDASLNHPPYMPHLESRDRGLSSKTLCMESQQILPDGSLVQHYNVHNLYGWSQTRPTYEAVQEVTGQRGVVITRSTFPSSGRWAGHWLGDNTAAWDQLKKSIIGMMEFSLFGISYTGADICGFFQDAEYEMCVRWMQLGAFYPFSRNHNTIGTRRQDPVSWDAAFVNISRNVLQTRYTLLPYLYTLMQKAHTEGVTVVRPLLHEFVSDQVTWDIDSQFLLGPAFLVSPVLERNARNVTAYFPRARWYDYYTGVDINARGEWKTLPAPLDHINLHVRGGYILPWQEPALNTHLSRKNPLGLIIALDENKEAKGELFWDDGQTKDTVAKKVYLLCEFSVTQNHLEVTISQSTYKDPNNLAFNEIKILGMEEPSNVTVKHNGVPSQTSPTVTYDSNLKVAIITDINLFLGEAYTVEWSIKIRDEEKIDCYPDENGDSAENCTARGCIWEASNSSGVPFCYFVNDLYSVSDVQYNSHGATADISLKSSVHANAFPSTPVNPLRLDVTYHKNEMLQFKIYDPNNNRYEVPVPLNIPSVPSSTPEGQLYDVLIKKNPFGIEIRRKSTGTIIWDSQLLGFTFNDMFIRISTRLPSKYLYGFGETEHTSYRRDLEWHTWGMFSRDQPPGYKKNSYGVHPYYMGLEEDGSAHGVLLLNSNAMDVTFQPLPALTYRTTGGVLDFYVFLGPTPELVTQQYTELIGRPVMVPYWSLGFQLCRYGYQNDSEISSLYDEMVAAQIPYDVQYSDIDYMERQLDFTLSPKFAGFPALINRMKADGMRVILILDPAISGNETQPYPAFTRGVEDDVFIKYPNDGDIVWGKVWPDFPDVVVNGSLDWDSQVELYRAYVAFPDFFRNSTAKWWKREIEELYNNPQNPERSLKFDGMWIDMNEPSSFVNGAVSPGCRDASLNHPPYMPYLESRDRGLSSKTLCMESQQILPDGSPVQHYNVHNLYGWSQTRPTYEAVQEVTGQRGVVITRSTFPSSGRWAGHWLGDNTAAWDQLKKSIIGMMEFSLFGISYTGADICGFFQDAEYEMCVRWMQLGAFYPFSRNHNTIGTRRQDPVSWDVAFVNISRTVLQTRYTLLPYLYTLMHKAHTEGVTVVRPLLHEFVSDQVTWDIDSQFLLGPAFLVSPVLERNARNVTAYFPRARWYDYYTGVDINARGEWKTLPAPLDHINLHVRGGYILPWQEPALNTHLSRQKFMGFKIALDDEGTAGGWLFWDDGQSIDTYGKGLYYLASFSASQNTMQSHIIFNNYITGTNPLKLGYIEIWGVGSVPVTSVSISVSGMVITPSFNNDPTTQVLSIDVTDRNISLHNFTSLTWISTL

In the case of `C=C1CC[C@@H]2[C@]3(C)COC(c4ccc(F)cc4)O[C@@H]3CC[C@@]2(C)[C@@H]1C/C=C1/C(=O)OC[C@H]1O` (stereo not given in full), the inhibition in assay [1] was determined as 26.2%.

With `C=C1CC[C@@H]2[C@](C)(CO)[C@H](O)CC[C@@]2(C)[C@@H]1/C=C/C1=CC(=C/C)/OC1=O`, the inhibition in assay [1] was determined as 15.1%. Besides, in assay [2], the inhibition result is “inactive”.

Regarding `C=C1CC[C@@H]2[C@](C)(CO)[C@H](O)CC[C@@]2(C)[C@@H]1/C=C/C1=CC(=C/c2ccc(Cl)cc2)/OC1=O`, in assay [1], the inhibition result is “inactive”.

`C=C1CC[C@@H]2[C@]3(C)COC(CCCC)O[C@@H]3CC[C@@]2(C)[C@@H]1C/C=C1/C(=O)OC[C@H]1O` (stereo not given in full): the inhibition entry in assay [1] and in assay [2] was “inactive” in each case.

`C=C1CC[C@@H]2[C@]3(C)COC(c4cccc(Br)c4)O[C@@H]3CC[C@@]2(C)[C@@H]1C/C=C1/C(=O)OC[C@H]1O` (stereo not given in full) gave an inhibition in assay [1] of 49.6%.

In the case of `C[C@]1(CO)[C@H]2CC[C@@]3(CO3)[C@@H](/C=C/C3=CC(=C/C=C/c4ccccc4)/OC3=O)[C@]2(C)CC[C@H]1O`, the inhibition in assay [1] stood at 49.2%.

Turning to `COc1ccc(/C=C2C=C(/C=C/[C@@H]3[C@@]4(CC[C@@H]5[C@](C)(CO)[C@H](O)CC[C@]53C)CO4)C(=O)O/2)cc1`, the inhibition in assay [1] came out at 37.7%.

In assay [1], `C=C1CC[C@@H]2[C@]3(C)COC(c4ccccc4OC)O[C@@H]3CC[C@@]2(C)[C@@H]1C/C=C1/C(=O)OC[C@H]1O` (stereo not given in full) came in with an inhibition of 5.5%.

Regarding `C=C1CC[C@@H]2[C@]3(C)COC(c4ccc(Cl)cc4)O[C@@H]3CC[C@@]2(C)[C@@H]1C/C=C1/C(=O)OC[C@H]1O` (stereo not given in full), the inhibition entry in assay [1] and in assay [2] was “inactive” each time.

For `C=C1CC[C@@H]2[C@](C)(CO)[C@H](O)CC[C@@]2(C)/C1=C/C=C1\C=COC1=O`, the inhibition entry in assay [1] and in assay [2] was “inactive” in each case.

As to `C=C1CC[C@@H]2[C@]3(C)COC(C)(C)O[C@@H]3CC[C@@]2(C)[C@@H]1C/C=C1/C(=O)OC[C@H]1O`, the inhibition entry in assay [1] and in assay [2] was “inactive” each time.

In the case of `CC(C)=C1C=C(/C=C/[C@@H]2[C@@]3(CC[C@@H]4[C@](C)(CO)[C@H](O)CC[C@]42C)CO3)C(=O)O1`, the inhibition result in assay [1] is “inactive”.

The molecule `C=C1CC[C@@H]2[C@](C)(CO)[C@H](O)CC[C@@]2(C)[C@@H]1/C=C/C1=CC(=C/c2ccc(OC)cc2)/OC1=O` came in with an inhibition in assay [1] of 100%.

For `C=C1CC[C@@H]2[C@]3(C)COCO[C@@H]3CC[C@@]2(C)[C@@H]1C/C=C1/C(=O)OC[C@H]1O`, the inhibition entry in assay [1] and in assay [2] was “inactive” throughout.

`C=C1CC[C@@H]2[C@]3(C)COC(CCCCCC)O[C@@H]3CC[C@@]2(C)[C@@H]1C/C=C1/C(=O)OC[C@H]1O` (stereo not given in full) had an inhibition in assay [1] of 20.1%. For the same molecule, the inhibition entry in assay [2] was “inactive”.

Molecule `C=C1CC[C@@H]2[C@](C)(CO)[C@H](O)CC[C@@]2(C)[C@@H]1/C=C/C1=CC(=C/C=C/c2ccccc2)/OC1=O` showed an inhibition in assay [1] of 84.3%.

In the case of `C=C1CC[C@@H]2[C@](C)(CO)[C@H](O)CC[C@@]2(C)[C@@H]1C/C=C1/C(=O)OC[C@H]1O`, the inhibition entry in assay [1] and in assay [2] was “inactive” each time.

Turning to `C=C1CC[C@@H]2[C@](C)(CO)[C@H](O)CC[C@@]2(C)[C@@H]1/C=C/C1=CC(=C/C=C(/C)CCC=C(C)C)/OC1=O`, the inhibition result in assay [1] was “inactive”.

Consider `C=C1CC[C@@H]2[C@](C)(CO)[C@H](O)CC[C@@]2(C)[C@@H]1/C=C/C1=CC(=C(C)C)OC1=O`, for which the inhibition in assay [1] was 17.1%. In assay [2], the inhibition entry was “inactive”.

On to `C[C@]1(CO)[C@H]2CC[C@@]3(CO3)[C@@H](/C=C/C3=CCOC3=O)[C@]2(C)CC[C@H]1O`, for which, in assay [1], the inhibition entry is “inactive”.

The molecule `C=C1CC[C@@H]2[C@](C)(CO)[C@H](O)CC[C@@]2(C)[C@@H]1CCC1C(=O)OC[C@H]1O` (stereo not given in full) showed an inhibition in assay [1] of 34.2%. For the same molecule, in assay [2], the inhibition result is “inactive”.

For `C=C1CC[C@@H]2[C@](C)(CO)[C@H](O)CC[C@@]2(C)[C@@H]1/C=C/C1=CC(=C/c2cccc(Br)c2)/OC1=O`, the inhibition in assay [1] is 16.7%.

In assay [1], `C=C1CC[C@@H]2[C@](C)(CO)[C@H](O)CC[C@@]2(C)[C@@H]1/C=C/C1=CCOC1=O` returned an inhibition of 16.5%. Moreover, the inhibition entry in assay [2] was “inactive”.

For `C=C1CC[C@@H]2[C@]3(C)COC(c4ccc(OC)cc4)O[C@@H]3CC[C@@]2(C)[C@@H]1C/C=C1/C(=O)OC[C@H]1O` (stereo not given in full), the inhibition in assay [1] was 13.2%.

With `C=C1CC[C@@H]2[C@]3(C)COC(c4cc(OC)c(OC)cc4OC)O[C@@H]3CC[C@@]2(C)[C@@H]1C/C=C1/C(=O)OC[C@H]1O` (stereo not given in full), the inhibition in assay [1] was 14.5%.

In assay [1], `C=C1CC[C@@H]2[C@]3(C)COC(c4ccccc4)O[C@@H]3CC[C@@]2(C)[C@@H]1C/C=C1/C(=O)OC[C@H]1O` (stereo not given in full) gave an inhibition of 48.9%.

For the molecule `C=C1CC[C@@H]2[C@](C)(CO)[C@H](O)CC[C@@]2(C)[C@@H]1/C=C/C1=CC(=C/c2ccc(F)cc2)/OC1=O`, the inhibition result in assay [1] is “inactive”.

As to `C=C1CC[C@@H]2[C@](C)(CO)[C@H](O)CC[C@@]2(C)[C@@H]1/C=C/C1=CC(=C/CCC)/OC1=O`, the inhibition in assay [1] was 43.5%. The inhibition result in assay [2] was “inactive”.
